# Results taken from US7838234B2, “Methods for determining cancer resistance to histone deacetylase inhibitors” (Pharmacyclics, Inc., priority 2007, dated 2010).
# Legend:
# [1] = system: acetylated tubulin in PBMC; test: Tubulin acetylation in peripheral blood mononuclear cells of treated mice (immunoblotting); assay type: in vivo, mouse; details: female BALB/c mice, 50 mg/kg IV, 0.25-8 hours after dosing
# Experimental: In brief, female BALB/c mice were injected IV with 50 mg/kg PCI-24781 or vehicle. Blood and various tissues were collected at 0.25, 0.5, 1, 2, 3 & 8 hours after dosing. For acetylated histone and tubulin detection, organs/tissues were pooled for each vehicle and drug-treated organ group. RNA and protein were extracted from the samples with the PARIS Protein and RNA Isolation System (Ambion). Levels of acetylated and total α-tubulin & histones were evaluated by immunoblotting.
# AML primary tumor cells = test: Soft agar tritiated thymidine assay of primary human tumor samples, EDR/IDR/LDR classification: AML; assay type: cell-based
# Experimental: (§1) Subsequently, primary human tumor samples were obtained and viable tumor cells were plated in soft agar and treated with the HDAC inhibitor PCI-24781. Tritiated thymidine was added after 3 days, and 2 days later the radioactivity incorporated into the DNA was quantified. The tumors were then classified as either resistant (EDR: Extreme Drug Resistance), sensitive (LDR) or intermediate (IDR) based on deviation from the median profile (Oncotech, Inc. Tustin, Calif.). As predicted based on the HDACi responsive biomarker gene profiles hematopoietic tumors had the lowest proportion of resistant (EDR) tumors, and colon the most (38%). Among the solid tumors, ovarian had the lowest proportion of resistant tumors, consistent with the high HDACi-biomarker responsiveness of this tissue.
# [2] = system: Glioblastoma primary tumor cells; test: Soft agar tritiated thymidine assay of primary human tumor samples, EDR/IDR/LDR classification: glioblastoma; assay type: cell-based
# Experimental: as §1
# [3] = system: primary colon tumor cells from newly diagnosed, naive patients; test: Ex vivo growth inhibition of primary colon tumor cells from newly diagnosed, naive patients; assay type: cell-based, human; details: ex vivo cultured cells from twelve patients, FIG. 11A
# [4] = system: HDACi-responsive biomarker genes; test: Taqman mRNA levels of HDACi-responsive biomarker genes in mouse tissues after dosing; assay type: in vivo; details: mice, 50 mg/kg, 3 and 8 hours after administration, 13 tissues
# Experimental: RNA expression profiles were determined using on a GE-Codelink Mouse Unisetl 10K oligonucleotide arrays in duplicate. Each treated sample was normalized to the corresponding vehicle control. In order to validate the expression profile of HDADi-responsive genes identified by the gene expression array assays, Taqman gene expression assays were performed using Applied Biosystems Inc. assays. One-step RT-PCR was carried out in triplicate on 25 ng of total RNA from each sample on a ABI PRISM 7700 instrument. The mRNA levels for each gene were normalized to the amount of RNA in the well as measured in parallel using Ribogreen (Molecular Probes). The treated samples were then normalized to the vehicle control at that time point. We then determined the in vivo expression levels for five of the RDACi-responsive biomarker genes in various tissues following 3 hours or 8 hours following administration of PCI-24781 (50 mg/kg). A Taqman assay was performed to determine mRNA expression levels in brain, colon, kidney, liver, stomach, ovary, uterus, mammary, muscle, heart, lung, spleen, and pancreas. The issue distribution pattern was very reproducible across the biomarker set.
# [5] = system: primary colorectal tumors (colon carcinoma biopsies); test: Soft agar chemosensitivity assay (tritiated thymidine incorporation) of primary colorectal tumors ex vivo; assay type: cell-based, human
# Description: The method used soft agar chemosensitivity assays in which primary human tumors were exposed in culture to PCI-24781. Either a trititated thymidine or alamar blue assay was then used to estimate the percentage of resistance to PCI-24781. For example in the trititated thymidine assay, sensitive tumor cells affected by the drug divided less and therefore incorporated less thymidine, whereas resistant tumor cells continued to grow and divide and therefore incorporated more thymidine into their DNA.
# Primary colorectal cancer (CRC) samples were obtained from patient biopsies (Table 2). Viable tumor cells were plated and cultured in soft agar as described in Kern et al. (1990), J. Natl. Cancer Inst., 82:582-588, and were treated with a range of PCI-24781 concentrations (0.01-2 μM). Tritiated thymidine was added to the culture after 3 days of exposure to the drug, and the amount of radioactivity incorporated into the cells after a further 2 days was quantified. The percentage of cell growth inhibition (% GI) was calculated by comparing the treated cells to the control cells, and from these growth profiles the tumors were classified as either sensitive or resistant based on deviation from the median profile.
# Subsequently, primary human tumor samples were obtained and viable tumor cells were plated in soft agar and treated with the HDAC inhibitor PCI-24781. Tritiated thymidine was added after 3 days, and 2 days later the radioactivity incorporated into the DNA was quantified. The tumors were then classified as either resistant (EDR: Extreme Drug Resistance), sensitive (LDR) or intermediate (IDR) based on deviation from the median profile (Oncotech, Inc. Tustin, Calif.).
# [6] = system: HDACi resistance biomarker genes in colorectal tumor cells; test: Microarray gene expression profiling of colorectal tumor cells treated with PCI-24781 or untreated; assay type: cell-based, human; details: PCI-24781 2 μM vs untreated
# Experimental: After determining tumor sensitivity to PCI-24781, gene expression profiles were determined for resistant and sensitive tumors that were treated with PCI-24781 (2 μM) or untreated. Total RNA was isolated using Qiagen procedures (Qiagen, Inc., Valencia, Calif.) and fluorescent probes were prepared and hybridized to Codelink Human Whole Genome oligonucleotide microarrays containing ˜55,000 unique probes (GE Healthcare Bio-Sciences Corp., Piscataway, N.J.) according to the manufacturer's instructions. The microarrays were scanned in a GenePix 4000B scanner (Molecular Devices Corporation, Sunnyvale Calif.). The images were processed with Codelink software and the exported data was analyzed as follows.
# The median-normalized microarray data were imported into Genespring software (Agilent), and principal component analysis (PCA) and hierarchical clustering analysis were performed. We looked for consistent results from multiple analysis methods to provide additional confidence in our results. For multiple hypothesis correction, we used the q-values approach for false discovery rates (FDR) as described in Storey et al. (2003), Proc. Nat. Acad. Sci. USA, 100:9440-9445. As a second analytical approach we adopted the Bayesian ANOVA approach described in Ishwaran et al. (2003), J. Amer. Stat. Assoc., 98:438-455. […]
# [7] = system: advanced metastatic colon tumor cells; test: Ex vivo growth inhibition of advanced metastatic colon tumor cells; assay type: cell-based, human; details: in a number of cases, FIG. 11B
# [8] = system: Multiple Myeloma primary tumor cells; test: Soft agar tritiated thymidine assay of primary human tumor samples, EDR/IDR/LDR classification: multiple myeloma; assay type: cell-based
# Experimental: as §1
# [9] = system: Ovarian primary tumor cells; test: Soft agar tritiated thymidine assay of primary human tumor samples, EDR/IDR/LDR classification: ovarian; assay type: cell-based
# Experimental: as §1
smiles,measurement,setting,value
CN(C)Cc1c(C(=O)NCCOc2ccc(C(=O)NO)cc2)oc2ccccc12 [PCI-24781],tubulin acetylation levels in PBMC,[1],increases
same,% Resistance,AML primary tumor cells,10%
same,Intermediate IDR (number of tumors),AML primary tumor cells; of 10 tumors,4
same,Resistant EDR (number of tumors),AML primary tumor cells; of 10 tumors,1
same,Sensitive LDR (number of tumors),AML primary tumor cells; of 10 tumors,5
same,% Resistance,[2],29%
same,Intermediate IDR (number of tumors),[2]; of 7 tumors,1
same,Resistant EDR (number of tumors),[2]; of 7 tumors,2
same,Sensitive LDR (number of tumors),[2]; of 7 tumors,4
same,sensitivity to growth inhibition,[3],all sensitive
same,tissue with highest induction of mRNA of five HDACi-responsive biomarker genes,[4],"Ovary showed the highest level of induction, followed by uterus"
same,% Resistance,[5],38%
same,Intermediate IDR (number of tumors),[5]; of 24 tumors,3
same,Resistant EDR (number of tumors),[5]; of 24 tumors,9
same,Sensitive LDR (number of tumors),[5]; of 24 tumors,12
same,effect of treatment on expression of the identified resistance biomarker genes,[6],not altered
same,sensitivity to growth inhibition,[7],resistant
same,% Resistance,[8],33%
same,Intermediate IDR (number of tumors),[8]; of 6 tumors,0
same,Resistant EDR (number of tumors),[8]; of 6 tumors,2
same,Sensitive LDR (number of tumors),[8]; of 6 tumors,4
same,% Resistance,[9],25%
same,Intermediate IDR (number of tumors),[9]; of 12 tumors,4
same,Resistant EDR (number of tumors),[9]; of 12 tumors,3
same,Sensitive LDR (number of tumors),[9]; of 12 tumors,5
